Here are results for 40 compounds from patent US10233173B2, “Substituted 1,2,3-triazoles as NR2B-selective NMDA modulators” (JANSSEN PHARMACEUTICA NV, priority 2016, dated 2019).

A value given as a limit tells only on which side of the number the result lay.

For the first experiment, the target named is human GluN1/GluN2B NMDA receptors (Homo sapiens, UniProt Q05586+Q13224). As to the kind of experiment: Cell-based calcium flux (FLIPR) assay on cloned human NR1/NR2B ion channels expressed in mammalian cells. The conditions noted are these: standard assay; glutamate at ~EC80; FLIPR calcium flux. A digest of the protocol: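 Calcium influx followed by FLIPR fluorescence after 5 min compound exposure and a further 5 min co-agonist challenge: 10 μM glycine with glutamate at ~EC80 (standard) or EC40 (HTS).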
human GluN1/GluN2B NMDA receptors, sequence (Q13224 27-1484, other chains not shown): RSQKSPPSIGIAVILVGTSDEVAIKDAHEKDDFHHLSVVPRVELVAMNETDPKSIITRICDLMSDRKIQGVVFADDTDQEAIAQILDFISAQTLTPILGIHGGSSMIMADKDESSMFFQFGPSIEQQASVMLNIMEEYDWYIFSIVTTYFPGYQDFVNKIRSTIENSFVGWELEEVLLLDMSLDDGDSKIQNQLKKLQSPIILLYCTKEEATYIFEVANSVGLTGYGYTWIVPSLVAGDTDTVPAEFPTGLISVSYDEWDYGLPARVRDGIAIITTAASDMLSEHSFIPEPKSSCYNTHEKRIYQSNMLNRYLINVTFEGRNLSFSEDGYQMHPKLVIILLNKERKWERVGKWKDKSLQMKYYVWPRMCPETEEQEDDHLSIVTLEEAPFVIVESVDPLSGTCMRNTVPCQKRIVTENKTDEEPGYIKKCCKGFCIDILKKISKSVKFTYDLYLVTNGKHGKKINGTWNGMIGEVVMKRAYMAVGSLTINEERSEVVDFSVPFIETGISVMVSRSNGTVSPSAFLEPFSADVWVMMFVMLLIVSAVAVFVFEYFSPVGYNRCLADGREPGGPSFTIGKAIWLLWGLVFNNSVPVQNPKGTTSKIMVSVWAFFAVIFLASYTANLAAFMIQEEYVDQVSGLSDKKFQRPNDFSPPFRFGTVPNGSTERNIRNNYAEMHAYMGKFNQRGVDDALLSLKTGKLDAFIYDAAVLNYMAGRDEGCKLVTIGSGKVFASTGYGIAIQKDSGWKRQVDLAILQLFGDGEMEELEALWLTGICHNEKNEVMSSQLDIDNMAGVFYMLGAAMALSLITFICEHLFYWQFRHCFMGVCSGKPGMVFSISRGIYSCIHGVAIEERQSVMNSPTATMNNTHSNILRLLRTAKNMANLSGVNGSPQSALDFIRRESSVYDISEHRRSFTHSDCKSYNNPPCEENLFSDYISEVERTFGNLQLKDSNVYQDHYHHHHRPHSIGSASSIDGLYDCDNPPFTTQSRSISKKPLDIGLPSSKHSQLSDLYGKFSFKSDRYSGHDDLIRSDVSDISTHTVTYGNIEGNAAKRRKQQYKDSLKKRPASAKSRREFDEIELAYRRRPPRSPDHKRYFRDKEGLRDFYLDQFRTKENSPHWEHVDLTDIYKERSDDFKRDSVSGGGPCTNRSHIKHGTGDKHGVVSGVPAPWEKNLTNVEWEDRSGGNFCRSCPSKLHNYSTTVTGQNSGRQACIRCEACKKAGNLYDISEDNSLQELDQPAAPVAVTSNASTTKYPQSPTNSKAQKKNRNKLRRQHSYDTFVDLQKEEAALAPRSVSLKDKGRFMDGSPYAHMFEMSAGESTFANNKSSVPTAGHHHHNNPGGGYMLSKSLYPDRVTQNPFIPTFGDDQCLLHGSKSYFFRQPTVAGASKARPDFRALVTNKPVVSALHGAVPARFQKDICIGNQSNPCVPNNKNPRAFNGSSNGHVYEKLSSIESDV
On the technique in general: A change in cytosolic calcium serves as a functional read-out for many receptors and channels.
As usually defined, the IC50 is the concentration that gives 50% inhibition. Regarding `COC(C)(C)c1cnc(OCc2cn(-c3ccc(F)c(C(C)(F)F)c3)nn2)nc1` [Example 567, 2-[[1-[3-(1,1-Difluoroethyl)-4-fluoro-phenyl]triazol-4-yl]methoxy]-5-(1-methoxy-1-methyl-ethyl)pyrimidine], the IC50 was 4.63 µM.
Regarding `CC(F)(F)c1cc(-n2cc(COc3nccc(N4CCCC4)n3)nn2)ccc1F` [Example 591, 2-[[1-[3-(1,1-Difluoroethyl)-4-fluoro-phenyl]triazol-4-yl]methoxy]-4-pyrrolidin-1-yl-pyrimidine], the IC50 was determined as 0.016 µM.
With `OCc1ccnc(OCc2cn(-c3ccc(Cl)c(C(F)F)c3)nn2)n1` [Example 625, [2-[[1-[4-Chloro-3-(difluoromethyl)phenyl]triazol-4-yl]methoxy]pyrimidin-4-yl]methanol], the IC50 was 0.017 µM.
On to `COC1CN(c2cnc(OCc3cn(-c4ccc(F)c(C(F)(F)F)c4)nn3)nc2)C1` [Example 460, 2-((1-(3-(Trifluoromethyl)-4-fluorophenyl)-1H-1,2,3-triazol-4-yl)methoxy)-5-(3-methoxyazetidin-1-yl)pyrimidine], for which the IC50 turned out to be 0.726 µM.
`Fc1ccc(-n2cc(COc3ncc(Br)cn3)nn2)cc1C(F)(F)F` [Example 454, 5-Bromo-2-((1-(4-fluoro-3-(trifluoromethyl)phenyl)-1H-1,2,3-triazol-4-yl)methoxy)pyrimidine]: the IC50 was 0.013 µM.
On the same count and under the same terms, as for `CN(C)c1cnc(OCc2cn(-c3ccc(F)c(C(C)(F)F)c3)nn2)nc1` [Example 590, 2-((1-(3-(1,1-Difluoroethyl)-4-fluorophenyl)-1H-1,2,3-triazol-4-yl)methoxy)-N,N-dimethylpyrimidin-5-amine], the figure is 0.039 µM; as for `CNc1nc(OCc2cn(-c3ccc(F)c(OC(F)F)c3)nn2)ncc1C` [Example 515, 2-[[1-[3-(Difluoromethoxy)-4-fluoro-phenyl]triazol-4-yl]methoxy]-N,5-dimethyl-pyrimidin-4-amine], 0.099 µM.
Consider `CN(C)C(=O)c1ccnc(OCc2cn(-c3ccc(F)c(C(F)F)c3)nn2)n1` [Example 410, 2-[[1-[3-(Difluoromethyl)-4-fluoro-phenyl]triazol-4-yl]methoxy]-N,N-dimethyl-pyrimidine-4-carboxamide], for which the IC50 is above 2.99 µM.
With `Fc1ccc(-n2cc(COc3nccc(N4CC(F)C4)n3)nn2)cc1OC(F)F` [Example 510, 2-[[1-[3-(Difluoromethoxy)-4-fluoro-phenyl]triazol-4-yl]methoxy]-4-(3-fluoroazetidin-1-yl)pyrimidine], the IC50 is 0.025 µM.
As for `Cc1cc(-n2cc(COc3ncc(OCCF)cn3)nn2)ccc1F` [Example 483, 5-(2-Fluoroethoxy)-2-[[1-(4-fluoro-3-methyl-phenyl)triazol-4-yl]methoxy]pyrimidine], the IC50 was 0.007 µM.
As to `Cc1cc(C)nc(OCc2cn(-c3ccc(Cl)c(C(C)(F)F)c3)nn2)n1` [Example 546, 2-[[1-[4-Chloro-3-(1,1-difluoroethyl)phenyl]triazol-4-yl]methoxy]-4,6-dimethyl-pyrimidine], the IC50 is 0.024 µM.
With `CNc1nc(OCc2cn(-c3ccc(F)c(OC(F)F)c3)nn2)ncc1F` [Example 518, 2-[[1-[3-(Difluoromethoxy)-4-fluoro-phenyl]triazol-4-yl]methoxy]-5-fluoro-N-methyl-pyrimidin-4-amine], the IC50 came out at 0.092 µM.
Consider `CC(F)(F)c1cc(-n2cc(COc3nccc(C(F)(F)F)n3)nn2)ccc1Cl` [Example 538, 2-[[1-[4-Chloro-3-(1,1-difluoroethyl)phenyl]triazol-4-yl]methoxy]-4-(trifluoromethyl)pyrimidine], for which the IC50 turned out to be 0.318 µM.
As for `CC(F)(F)c1ccnc(OCc2cn(-c3ccc(F)c(C(F)F)c3)nn2)n1` [Example 696, 4(1,1-Difluoroethyl)-2-((1-(3-(difluoromethyl)-4-fluorophenyl)-1H-1,2,3-triazol-4-yl)methoxy)pyrimidine], the IC50 came out at 0.958 µM.
Same read-out and setting: as for `CC(F)(F)c1cc(-n2cc(COc3nccc(CO)n3)nn2)ccc1Cl` [Example 540, [2-[[1-[4-Chloro-3-(1,1-difluoroethyl)phenyl]triazol-4-yl]methoxy]pyrimidin-4-yl]methanol], the figure is 0.019 µM.
With `Cc1cccc(-n2cc(COc3ncc(OC(F)F)cn3)nn2)c1F` [Example 471, 5-(Difluoromethoxy)-2-[[1-(2-fluoro-3-methyl-phenyl)triazol-4-yl]methoxy]pyrimidine], the IC50 stood at 1.73 µM.
`Cc1cnc(OCc2cn(-c3ccc(F)c(OC(F)F)c3)nn2)cn1` [Example 396, 2-[[1-[3-(Difluoromethoxy)-4-fluoro-phenyl]triazol-4-yl]methoxy]-5-methyl-pyrazine]: the IC50 is 0.647 µM.
As for `Fc1ccc(-n2cc(COc3ncc(F)c(NC4CC4)n3)nn2)cc1OC(F)F` [Example 519, N-Cyclopropyl-2-((1-(3-(difluoromethoxy)-4-fluorophenyl)-1H-1,2,3-triazol-4-yl)methoxy)-5-fluoropyrimidin-4-amine], the IC50 stood at 0.204 µM.
On to `Cc1cc(-n2cc(COc3nccc(N)n3)nn2)ccc1F` [Example 472, 2-[[1-(4-Fluoro-3-methyl-phenyl)triazol-4-yl]methoxy]pyrimidin-4-amine], for which the IC50 stood at 0.149 µM.

The same experiment, now with this note: standard assay; human GluN1/GluN2B, calcium flux (FLIPR), glutamate ~EC80.
As for `Cc1cc(C)nc(OCc2cn(-c3ccc(F)c(Br)c3)nn2)n1` [Example 18, 2-[[1-(3-Bromo-4-fluoro-phenyl)triazol-4-yl]methoxy]-4,6-dimethyl-pyrimidine], the IC50 came to 0.082 µM.
Consider `CC(F)(F)c1cccc(-n2cc(COc3ncc(Cl)cn3)nn2)c1` [Example 294, 5-Chloro-2-[[1-[3-(1,1-difluoroethyl)phenyl]triazol-4-yl]methoxy]pyrimidine], for which the IC50 worked out at 0.003 µM.
Consider `Cn1cc(NCc2cn(-c3ccc(F)c(C(F)F)c3)nn2)cn1` [Example 99, N-[[1-[3-(Difluoromethyl)-4-fluoro-phenyl]triazol-4-yl]methyl]-1-methyl-pyrazol-4-amine], for which the IC50 turned out to be 5.05 µM.
Take `Cc1cnc(OCc2cn(-c3ccnc(C)c3)nn2)nc1` [Example 175, 5-Methyl-2-[[1-(2-methyl-4-pyridyl)triazol-4-yl]methoxy]pyrimidine]: the IC50 turned out to be 0.655 µM.
For the compound `CC(F)(F)c1cccc(-n2cc(COc3ncc(C4CC4)cn3)nn2)c1` [Example 319, 5-Cyclopropyl-2-[[1-[3-(1,1-difluoroethyl)phenyl]triazol-4-yl]methoxy]pyrimidine], the IC50 was determined as 0.015 µM.
For the compound `Cc1cnc(OCc2cn(-c3ccc(F)c(Br)c3)nn2)nc1` [Example 16, 2-[[1-(3-Bromo-4-fluoro-phenyl)triazol-4-yl]methoxy]-5-methylpyrimidine], the IC50 was 0.001 µM.
Still for that read-out and setting: as for `COCc1ccnc(OCc2cn(-c3cccc(C(F)F)c3)nn2)n1` [Example 271], the figure is 0.36 µM; as for `Cc1cc(-n2cc(CNc3ncc(Cl)c(C)n3)nn2)ccc1F` [Example 199, 5-Chloro-N-[[1-(4-fluoro-3-methyl-phenyl)triazol-4-yl]methyl]-4-methyl-pyrimidin-2-amine], 0.051 µM.
On to `FC(F)Oc1cccc(-n2cc(COc3ncccn3)nn2)c1` [Example 323, 2-[[1-[3-(Difluoromethoxy)phenyl]triazol-4-yl]methoxy]pyrimidine], for which the IC50 was 0.788 µM.
On to `COc1cnc(OCc2cn(-c3ccc(F)c(C(C)(F)F)c3)nn2)nc1` [Example 68, 2-[[1-[3-(1,1-Difluoroethyl)-4-fluoro-phenyl]triazol-4-yl]methoxy]-5-methoxy-pyrimidine], for which the IC50 came out at 0.007 µM.
Consider `Fc1ccc(-n2cc(COc3ncc(Cl)cn3)nn2)cc1C(F)(F)F` [Example 74, 5-Chloro-2-[[1-[4-fluoro-3-(trifluoromethyl)phenyl]triazol-4-yl]methoxy]pyrimidine], for which the IC50 is 0.016 µM.
Regarding `FC(F)Oc1ccc(-n2cc(COc3ncccn3)nn2)cc1` [Example 329, 2-[[1-[4-(Difluoromethoxy)phenyl]triazol-4-yl]methoxy]pyrimidine], the IC50 came to 0.854 µM.
`COc1cnc(OCc2cn(-c3ccc(C)cc3)nn2)nc1` [Example 258, 5-Methoxy-2-[[1-(p-tolyl)triazol-4-yl]methoxy]pyrimidine]: the IC50 amounted to 0.225 µM.
On to `CC(C)c1cnc(OCc2cn(-c3ccc(Cl)c(OC(F)F)c3)nn2)nc1` [Example 373, 2-[[1-[4-Chloro-3-(difluoromethoxy)phenyl]triazol-4-yl]methoxy]-5-isopropyl-pyrimidine], for which the IC50 turned out to be 0.01 µM.
Regarding `COc1cc(-n2cc(COc3ncc(C)cn3)nn2)ccc1Cl` [Example 88, 2-[[1-(4-Chloro-3-methoxy-phenyl)triazol-4-yl]methoxy]-5-methyl-pyrimidine], the IC50 was determined as 0.019 µM.
Same read-out and setting: as for `Cc1nc(OCc2cn(-c3cccc(C(F)(F)F)c3)nn2)ncc1Cl` [Example 291, 5-Chloro-4-methyl-2-[[1-[3-(trifluoromethyl)phenyl]triazol-4-yl]methoxy]pyrimidine], the figure is 0.009 µM.
`CC(C)c1cnc(OCc2cn(-c3ccc(F)c(C(C)(F)F)c3)nn2)nc1` [Example 70, 2-[[1-[3-(1,1-Difluoroethyl)-4-fluoro-phenyl]triazol-4-yl]methoxy]-5-isopropyl-pyrimidine]: the IC50 was 0.044 µM.
As for `Fc1ccc(-n2cc(COc3ncc(C(F)(F)F)cn3)nn2)cc1Br` [Example 44, 2-[[1-(3-Bromo-4-fluoro-phenyl)triazol-4-yl]methoxy]-5-(trifluoromethyl)pyrimidine], the IC50 turned out to be 0.005 µM.
For the compound `COCc1ccnc(OCc2cn(-c3cccc(C)c3)nn2)n1` [Example 250, 4-(Methoxymethyl)-2-[[1-(m-tolyl)triazol-4-yl]methoxy]pyrimidine], the IC50 was determined as 0.249 µM.
On to `CCc1cnc(OCc2cn(-c3ccc(OC(F)F)cc3)nn2)nc1` [Example 334, 2-[[1-[4-(Difluoromethoxy)phenyl]triazol-4-yl]methoxy]-5-ethyl-pyrimidine], for which the half-inhibitory concentration (IC50) was found to be 0.051 µM.
Turning to `Cn1ccc(NCc2cn(-c3ccc(F)c(C(F)F)c3)nn2)n1` [Example 100, N-[[1-[3-(Difluoromethyl)-4-fluoro-phenyl]triazol-4-yl]methyl]-1-methyl-pyrazol-3-amine], the IC50 stood at 0.894 µM.
